Test results from patent publication US20240276978A1, “Method for Dispersing Live Predatory Mites of the Phytoseiulus Genus Which Are Used in Biocontrol” (Bioline Agrosciences France, priority 2020, published 2024).

Key:
[1] = Thickening agent solution equivalent to the standard; assay type: physicochemical; settings: at concentration tested (g/L): alginate 10, modified corn starch 34, amylopectin 67, carrageenans 3, chitosan 100, dextrin 46, guar 2, xanthan 2, glycerol 860, konjac 4, Carbomer 940 4, Gel Maker EMU 4.4, PVP 60, carboxymethylcellulose 30, hydroxypropylcellulose 30, calcium chloride 280, potassium chloride 280, potassium sulfate 140
Phytoseiulus persimilis = experiment: "Toxicity" of thickening agent to persimilis at 12 hours; assay type: in vivo; settings: concentration tested (g/L): alginate 10, modified corn starch 34, carrageenans 3, guar 2, xanthan 2, glycerol 860, konjac 4, Carbomer 940 4, Gel Maker EMU 4.4, PVP 60, carboxymethylcellulose 30
Description: “Non-toxic” means less than 20% of biocontrol agents dead at the end of 12 hours.
A little solution containing the persimilis is kept in order to evaluate any possible “toxicity” at 12 hours.

Row | Structure (SMILES) | Equivalent to the standard [1] | “Toxicity” (Phytoseiulus persimilis)
1 | [Ca+2].[Cl-].[Cl-] [Calcium chloride] | No | –
2 | OCC(O)CO [Glycerol] | Yes | Yes
3 | [Cl-].[K+] [Potassium chloride] | No | –
4 | O=S(=O)([O-])[O-].[K+].[K+] [Potassium sulfate] | no | –
